Laboratory results published in ChEMBL document CHEMBL1697731, “Cheminformatics analysis of assertions mined from literature that describe drug-induced liver injury in different species” (Chem Res Toxicol, 2010).

Experiments:
Hepatotoxicity [1] = assay: Literature-mined compound from Fourches et al multi-species drug-induced liver injury (DILI) dataset, effect in humans; conditions: human
Hepatotoxicity [2] = assay: Literature-mined compound from Fourches et al multi-species drug-induced liver injury (DILI) dataset, effect in rodents; conditions: rodentia
Hepatotoxicity [3] = assay: Literature-mined compound from Fourches et al multi-species drug-induced liver injury (DILI) dataset, effect in non-rodents

Compound | Hepatotoxicity (Hepatotoxicity [1]) | Hepatotoxicity (Hepatotoxicity [2]) | Hepatotoxicity (Hepatotoxicity [3]) | Hepatotoxicity (Hepatotoxicity [1]; Liver) | Hepatotoxicity (Hepatotoxicity [2]; Liver) | Hepatotoxicity (Hepatotoxicity [3]; Liver)
COc1ccc(C(=O)Nc2ccccc2CCC2CCCCN2C)cc1 (stereo unspecified) [ENCAINIDE] | drug-induced liver injury reported | no drug-induced liver injury reported | no drug-induced liver injury reported |  |  | 
CC(NCCc1ccc(O)cc1)C(O)c1ccc(O)cc1.Cl (stereo unspecified) [RITODRINE HYDROCHLORIDE] | no drug-induced liver injury reported | no drug-induced liver injury reported | drug-induced liver injury reported |  |  | 
O=C(O)[C@H](CC(=O)N1C[C@H]2CCCC[C@H]2C1)Cc1ccccc1 [MITIGLINIDE] | no drug-induced liver injury reported | drug-induced liver injury reported | no drug-induced liver injury reported |  |  | 
CC(C)NCC1CCc2cc(CO)c([N+](=O)[O-])cc2N1 (stereo unspecified) [OXAMNIQUINE] | no drug-induced liver injury reported | drug-induced liver injury reported | no drug-induced liver injury reported |  |  | 
O=c1c(-c2ccccc2)coc2ccccc12 [ISOFLAVONE] | no drug-induced liver injury reported | no drug-induced liver injury reported | drug-induced liver injury reported |  |  | 
Cc1nc2ccc(CN(C)c3ccc(C(=O)N[C@@H](CCC(=O)O)C(=O)O)s3)cc2c(=O)[nH]1 [RALTITREXED] | drug-induced liver injury reported | no drug-induced liver injury reported | no drug-induced liver injury reported |  |  | 
Cc1cn[nH]c1 [FOMEPIZOLE] | drug-induced liver injury reported | drug-induced liver injury reported | no drug-induced liver injury reported |  |  | 
C[C@H](Cn1cnc2c(N)ncnc21)OCP(=O)(O)O [TENOFOVIR ANHYDROUS] | drug-induced liver injury reported | no drug-induced liver injury reported | no drug-induced liver injury reported |  |  | 
CC(C)C[C@H](NC(=O)[C@@H](Cc1ccc2ccccc2c1)NC(=O)[C@H](Cc1ccc(O)cc1)NC(=O)[C@H](CO)NC(=O)[C@H](Cc1c[nH]c2ccccc12)NC(=O)[C@H](Cc1c[nH]cn1)NC(=O)[C@@H]1CCC(=O)N1)C(=O)N[C@@H](CCCNC(=N)N)C(=O)N1CCC[C@H]1C(=O)NCC(N)=O [NAFARELIN] | drug-induced liver injury reported | no drug-induced liver injury reported | no drug-induced liver injury reported |  |  | 
CN1CCC[C@H]1c1cccnc1 [NICOTINE] |  |  |  | drug-induced liver injury reported | drug-induced liver injury reported | no drug-induced liver injury reported
Fc1ccc([C@@H]2CCNC[C@H]2COc2ccc3c(c2)OCO3)cc1 [PAROXETINE] | drug-induced liver injury reported | no drug-induced liver injury reported | no drug-induced liver injury reported |  |  | 
CNC(=O)Oc1ccc2c(c1)[C@]1(C)CCN(C)[C@@H]1N2C [PHYSOSTIGMINE] | no drug-induced liver injury reported | drug-induced liver injury reported | no drug-induced liver injury reported |  |  | 
C#C[C@]1(O)CC[C@H]2[C@@H]3CCc4cc(OC)ccc4[C@H]3CC[C@@]21C [MESTRANOL] | drug-induced liver injury reported | drug-induced liver injury reported | drug-induced liver injury reported |  |  | 
C[C@@H](O)[C@H](NC(=O)N(C)c1ncnc2c1ncn2[C@@H]1O[C@H](COP(=O)(O)O)[C@@H](O)[C@H]1O)C(=O)O | no drug-induced liver injury reported | drug-induced liver injury reported | no drug-induced liver injury reported |  |  | 
CCCCCCCCCC(=O)O[C@H]1CC[C@H]2[C@@H]3CCC4=CC(=O)CC[C@@H]4[C@H]3CC[C@]12C [NANDROLONE DECANOATE] | no drug-induced liver injury reported | drug-induced liver injury reported | no drug-induced liver injury reported |  |  | 
Cc1ccc(O)c([C@H](CCN(C(C)C)C(C)C)c2ccccc2)c1 [TOLTERODINE] | drug-induced liver injury reported | no drug-induced liver injury reported | no drug-induced liver injury reported |  |  | 
C[C@]12CC[C@@H]3c4ccc(O)cc4CC[C@H]3[C@@H]1CC[C@@H]2O [ESTRADIOL] | drug-induced liver injury reported | drug-induced liver injury reported | drug-induced liver injury reported |  |  | 
CC1(C)[C@@H](O)CC[C@]2(C)[C@H]3C(=O)C=C4[C@@H]5C[C@@](C)(C(=O)O)CC[C@]5(C)CC[C@@]4(C)[C@]3(C)CC[C@@H]12 [ENOXOLONE] | drug-induced liver injury reported | drug-induced liver injury reported | no drug-induced liver injury reported |  |  | 
O=C(O)CCc1nc(-c2ccccc2)c(-c2ccccc2)o1 [OXAPROZIN] | drug-induced liver injury reported | no drug-induced liver injury reported | no drug-induced liver injury reported |  |  | 

Compound | Hepatotoxicity (Hepatotoxicity [1]) | Hepatotoxicity (Hepatotoxicity [2]) | Hepatotoxicity (Hepatotoxicity [3]) | Hepatotoxicity (Hepatotoxicity [1]; Liver) | Hepatotoxicity (Hepatotoxicity [2]; Liver) | Hepatotoxicity (Hepatotoxicity [3]; Liver)
Cc1cccc(CN2CCN(C(c3ccccc3)c3ccc(Cl)cc3)CC2)c1 (stereo unspecified) [MECLIZINE] | no drug-induced liver injury reported | drug-induced liver injury reported | no drug-induced liver injury reported |  |  | 
C[C@H]1COc2c(N3CCN(C)CC3)c(F)cc3c(=O)c(C(=O)O)cn1c23.C[C@H]1COc2c(N3CCN(C)CC3)c(F)cc3c(=O)c(C(=O)O)cn1c23.O [LEVOFLOXACIN] | drug-induced liver injury reported | no drug-induced liver injury reported | no drug-induced liver injury reported |  |  | 
COc1cc2c(cc1OC)C1CC(=O)C(CC(C)C)CN1CC2 (stereo unspecified) [TETRABENAZINE] | drug-induced liver injury reported | no drug-induced liver injury reported | no drug-induced liver injury reported |  |  | 
CO[C@@H]1[C@H](OC(=O)NC(=O)CCl)CC[C@]2(CO2)[C@H]1[C@@]1(C)O[C@@H]1CC=C(C)C [O-CHLOROACETYLCARBAMOYLFUMAGILLOL] | no drug-induced liver injury reported | drug-induced liver injury reported | drug-induced liver injury reported |  |  | 
Nc1nc2ccc(OC(F)(F)F)cc2s1 [RILUZOLE] | drug-induced liver injury reported | no drug-induced liver injury reported | no drug-induced liver injury reported |  |  | 
Clc1cccc(Cl)c1N=C1NCCN1 [CLONIDINE] |  |  |  | drug-induced liver injury reported | drug-induced liver injury reported | no drug-induced liver injury reported
C[C@]12CC[C@@H]3c4ccc(O)cc4CC[C@H]3[C@@H]1C[C@@H](O)[C@@H]2O [ESTRIOL] | no drug-induced liver injury reported | drug-induced liver injury reported | no drug-induced liver injury reported |  |  | 
CC/C(=C(/CC)c1ccc(O)cc1)c1ccc(O)cc1 [DIETHYLSTILBESTROL] | drug-induced liver injury reported | drug-induced liver injury reported | drug-induced liver injury reported |  |  | 
CCO [ALCOHOL] |  |  |  | drug-induced liver injury reported | drug-induced liver injury reported | drug-induced liver injury reported
CCC1(c2ccccc2)CCC(=O)NC1=O (stereo unspecified) [GLUTETHIMIDE] | drug-induced liver injury reported | no drug-induced liver injury reported | no drug-induced liver injury reported |  |  | 
Nc1nc(Cl)nc2c1ncn2[C@@H]1O[C@H](CO)[C@@H](O)[C@@H]1F [CLOFARABINE] | drug-induced liver injury reported | no drug-induced liver injury reported | no drug-induced liver injury reported |  |  | 
NCC(CC(=O)O)c1ccc(Cl)cc1 (stereo unspecified) [BACLOFEN] | drug-induced liver injury reported | no drug-induced liver injury reported | no drug-induced liver injury reported |  |  | 
CC(C)(C(=O)c1cccnc1)c1cccnc1 [METYRAPONE] |  |  |  | drug-induced liver injury reported | drug-induced liver injury reported | no drug-induced liver injury reported
PORFIMER SODIUM | no drug-induced liver injury reported | drug-induced liver injury reported | no drug-induced liver injury reported |  |  | 
C=C1[C@H](CO)[C@@H](O)C[C@@H]1n1cnc2c(=O)[nH]c(N)nc21.O | drug-induced liver injury reported | no drug-induced liver injury reported | no drug-induced liver injury reported |  |  | 
CN1CCN2c3ncccc3Cc3ccccc3C2C1 (stereo unspecified) [MIRTAZAPINE] | drug-induced liver injury reported | no drug-induced liver injury reported | no drug-induced liver injury reported |  |  | 
COC(=O)N[C@H](C(=O)N[C@@H](Cc1ccccc1)[C@@H](O)CN(Cc1ccc(-c2ccccn2)cc1)NC(=O)[C@@H](NC(=O)OC)C(C)(C)C)C(C)(C)C [ATAZANAVIR] | drug-induced liver injury reported | no drug-induced liver injury reported | no drug-induced liver injury reported |  |  | 
Oc1ccccc1 [PHENOL] |  |  |  | drug-induced liver injury reported | drug-induced liver injury reported | no drug-induced liver injury reported
